We go through five compounds from US10183943B2, “Heterocyclic compounds and their use in preventing or treating bacterial infections” (MUTABILIS, priority 2015, dated 2019).

Each structure is given as a SMILES string. Where a name gives a salt, the structure may show the parent alone.

Assay [1] concerns the target T1, TEM-1 (Escherichia coli, UniProt P62593).
T1 construct: made in house; host or cells: E. coli
The assay is described as follows: β-lactamase inhibitory activity, determination of IC50 (nitrocefin hydrolysis). It counts as biochemical.

Assay [2] deals with T2, SHV-1 (Klebsiella pneumoniae, UniProt P0AD64).
T2 construct: made in house; host or cells: E. coli
Described as above. The class given is biochemical.

Assay [3] has as its target T3, OXA-1 (Escherichia coli, UniProt P13661).
T3 construct: made in house; host or cells: E. coli
The assay is described as above. It counts as biochemical. The conditions noted are these: class (D); nitrocefin 200 μM, 30 min pre-incubation; read-out: IC50 β-lactamase OXA-1.

Assay [4] concerns the target T4, OXA-11 (Pseudomonas aeruginosa, UniProt Q06778).
T4 construct: made in house; host or cells: E. coli
The assay is described as above. It counts as biochemical.

Assay [5] concerns the target T5, OXA-15 (Pseudomonas aeruginosa, UniProt Q51574).
T5 construct: made in house; host or cells: E. coli
The assay is described as follows: biochemical.

Assay [6] deals with E. cloacae P99 (AmpC). The assay can be described thus: MIC of compounds alone, broth microdilution. The class given is cell-based. The conditions noted are these: Enterobacter cloacae; strain P99 (E. cloacae); read-out: MIC compounds of the invention alone. A digest of the protocol:
(§1)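 Compounds were dissolved in DMSO and spotted onto plates. Log-phase cells were then added at 5×10^5 cfu/mL in cation-adjusted Mueller-Hinton broth, incubated 16-20 h at 35° C, and the MIC was scored visually as the lowest growth-inhibiting concentration.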
On the technique in general: In broth dilution the organism is exposed to a series of concentrations in liquid medium.

The subject of assay [7] is E. cloacae UFR51 (SHV-12, IMP-8). The assay can be described thus: MIC of compounds alone, broth microdilution. The class given is cell-based. The conditions noted are these: Enterobacter cloacae; strain UFR51 (E. cloacae); read-out: MIC compounds of the invention alone. In a few lines:
as §1

Assay [8] concerns E. coli 131119 (TEM-1, OXA-48). The assay is described as follows: MIC of compounds alone, broth microdilution. It counts as cell-based. The conditions noted are these: Escherichia coli; strain 131119 (E. coli); read-out: MIC compounds of the invention alone. A digest of the protocol: as §1
In assay [9] the test system is E. coli UFR18 (CTX-M-15, OXA-204). The assay can be described thus: MIC of compounds alone, broth microdilution. It counts as cell-based. Particulars: Escherichia coli; strain UFR18 (E. coli); read-out: MIC compounds of the invention alone. In a few lines:
as §1

Assay [10] concerns E. coli UFR32 (TEM-1, VEB-1, OXA-10). The assay can be described thus: MIC of compounds alone, broth microdilution. It counts as cell-based. The conditions noted are these: Escherichia coli; strain UFR32 (E. coli); read-out: MIC compounds of the invention alone. A digest of the protocol: as §1
Assay [11] concerns E. coli UFR41 (TEM-1, CTX-M-15, CMY-2, OXA-1, NDM-4). The assay is described as follows: MIC of compounds alone, broth microdilution. It counts as cell-based. The conditions noted are these: Escherichia coli, read-out: MIC compounds of the invention alone. A digest of the protocol:
as §1

The subject of assay [12] is E. coli UFR61O (TEM-1, KPC-2). The assay is described as follows: MIC of compounds alone, broth microdilution. Particulars: Escherichia coli; strain UFR61O (E. coli); read-out: MIC compounds of the invention alone. The class given is cell-based. A digest of the protocol:
as §1

The test system of assay [13] is E. coli UFR74 (SHV-1, DHA-1). The assay is described as follows: MIC of compounds alone, broth microdilution. It counts as cell-based. Particulars: Escherichia coli; strain UFR74 (E. coli); read-out: MIC compounds of the invention alone. A digest of the protocol:
as §1

Assay [14] deals with K. oxytoca UFR21 (TEM-1, CTX-M-15, OXA-48). The assay is described as follows: MIC of compounds alone, broth microdilution. Particulars: Klebsiella oxytoca, read-out: MIC compounds of the invention alone. It counts as cell-based. In a few lines: as §1
The test system of assay [15] is K. pneumoniae 160143 (TEM-1, SHV-1, CTX-M-15, KPC-2, OXA-1). The assay is described as follows: MIC of compounds alone, broth microdilution. The conditions noted are these: Klebsiella pneumoniae, read-out: MIC compounds of the invention alone. The class given is cell-based. A digest of the protocol:
as §1

For assay [16], the system named is K. pneumoniae 200047 (TEM-1, SHV-32, CTX-M-15, OXA-1). The assay can be described thus: MIC of compounds alone, broth microdilution. It counts as cell-based. Particulars: Klebsiella pneumoniae, read-out: MIC compounds of the invention alone. A digest of the protocol:
as §1

Assay [17] concerns K. pneumoniae 6299 (TEM-1, SHV-11, OXA-163). The assay is described as follows: MIC of compounds alone, broth microdilution. The class given is cell-based. Particulars: Klebsiella pneumoniae; strain 6299 (K. pneumoniae); read-out: MIC compounds of the invention alone. A digest of the protocol: as §1
Assay [18] relates to K. pneumoniae BAA-1898 (TEM-1, SHV-11, SHV-12, KPC-2). The assay is described as follows: MIC of compounds alone, broth microdilution. The class given is cell-based. The conditions noted are these: Klebsiella pneumoniae, BAA1898; strain BAA-1898 (K. pneumoniae); read-out: MIC compounds of the invention alone. A digest of the protocol:
as §1

For assay [19], the system named is K. pneumoniae UFR24 (TEM-1, SHV-2, SHV-11, OXA-1, OXA-48, OXA-47). The assay is described as follows: MIC of compounds alone, broth microdilution. The class given is cell-based. The conditions noted are these: Klebsiella pneumoniae; strain UFR24 (K. pneumoniae); read-out: MIC compounds of the invention alone. A digest of the protocol: as §1
Assay [20] has as its system K. pneumoniae UFR39 (CTX-M-15, NDM-1). The assay is described as follows: MIC of compounds alone, broth microdilution. It counts as cell-based. The conditions noted are these: Klebsiella pneumoniae; strain UFR39 (K. pneumoniae); read-out: MIC compounds of the invention alone. In a few lines:
as §1

Assay [21] concerns K. pneumoniae UFR77 (CMY-2). The assay is described as follows: MIC of compounds alone, broth microdilution. It counts as cell-based. Particulars: Klebsiella pneumoniae; strain UFR77 (K. pneumoniae); read-out: MIC compounds of the invention alone. A digest of the protocol: as §1
In assay [22] the test system is P. aeruginosa CIP107051 (TEM-24). The assay is described as follows: MIC of compounds alone, broth microdilution. It counts as cell-based. Particulars: Pseudomonas aeruginosa; strain CIP107051 (P. aeruginosa); read-out: MIC compounds of the invention alone. In a few lines: as §1
Assay [23] relates to E. cloacae UFR51 (SHV-12, IMP-8). The assay is described as follows: MIC of ceftazidime (CAZ) in combination with compounds at 4 μg/mL, broth microdilution. Particulars: strain UFR51; MIC of CAZ with compound fixed at 4 μg/mL. It counts as cell-based. A digest of the protocol:
as §1

Assay [24] deals with AmpC P. aeruginosa (Pseudomonas aeruginosa, UniProt P24735). The assay is described as follows: β-lactamase inhibitory activity, determination of IC50 (nitrocefin hydrolysis).

As usually defined, the IC50 is the concentration needed to halve the response being measured. As a reminder, the MIC is the smallest concentration in the dilution series that meets the test's criterion for growth inhibition.

T5 sequence (Q51574 22-275): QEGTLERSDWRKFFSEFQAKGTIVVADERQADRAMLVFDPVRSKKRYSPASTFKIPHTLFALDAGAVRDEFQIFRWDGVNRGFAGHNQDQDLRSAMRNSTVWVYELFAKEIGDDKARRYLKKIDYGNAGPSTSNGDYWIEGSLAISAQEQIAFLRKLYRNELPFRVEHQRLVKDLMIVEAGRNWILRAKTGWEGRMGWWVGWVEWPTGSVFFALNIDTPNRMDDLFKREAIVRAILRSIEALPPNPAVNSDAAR
T3 sequence (P13661 26-276): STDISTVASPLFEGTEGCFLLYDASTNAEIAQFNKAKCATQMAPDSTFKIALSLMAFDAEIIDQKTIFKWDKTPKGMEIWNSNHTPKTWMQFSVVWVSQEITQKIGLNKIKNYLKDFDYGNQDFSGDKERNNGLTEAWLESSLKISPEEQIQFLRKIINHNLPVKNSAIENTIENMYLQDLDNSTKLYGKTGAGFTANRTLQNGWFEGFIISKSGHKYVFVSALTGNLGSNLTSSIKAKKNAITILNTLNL
T2 sequence (P0AD64 22-286): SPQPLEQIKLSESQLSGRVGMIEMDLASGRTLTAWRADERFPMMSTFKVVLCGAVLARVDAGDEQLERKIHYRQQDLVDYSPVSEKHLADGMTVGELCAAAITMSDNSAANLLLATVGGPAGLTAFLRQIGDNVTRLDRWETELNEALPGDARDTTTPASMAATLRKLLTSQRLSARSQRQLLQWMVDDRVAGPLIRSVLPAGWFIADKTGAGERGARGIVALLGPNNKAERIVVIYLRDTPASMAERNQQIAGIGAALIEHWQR
T1 sequence (P62593 24-286 limits assumed): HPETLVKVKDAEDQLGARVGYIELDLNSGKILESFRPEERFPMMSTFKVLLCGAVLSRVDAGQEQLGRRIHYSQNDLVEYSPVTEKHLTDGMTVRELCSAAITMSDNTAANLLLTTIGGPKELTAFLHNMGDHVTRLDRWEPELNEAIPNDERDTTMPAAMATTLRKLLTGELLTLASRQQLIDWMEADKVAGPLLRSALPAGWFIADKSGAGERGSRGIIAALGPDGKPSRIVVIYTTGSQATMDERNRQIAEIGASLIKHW
T4 sequence (Q06778 21-266): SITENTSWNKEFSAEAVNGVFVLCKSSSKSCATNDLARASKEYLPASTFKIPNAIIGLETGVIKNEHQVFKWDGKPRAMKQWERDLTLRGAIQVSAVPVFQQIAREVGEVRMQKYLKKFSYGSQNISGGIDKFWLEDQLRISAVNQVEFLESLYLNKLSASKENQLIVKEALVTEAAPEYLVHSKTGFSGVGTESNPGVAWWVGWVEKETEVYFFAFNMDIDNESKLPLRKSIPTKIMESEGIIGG
AmpC P. aeruginosa, sequence (P24735 27-397): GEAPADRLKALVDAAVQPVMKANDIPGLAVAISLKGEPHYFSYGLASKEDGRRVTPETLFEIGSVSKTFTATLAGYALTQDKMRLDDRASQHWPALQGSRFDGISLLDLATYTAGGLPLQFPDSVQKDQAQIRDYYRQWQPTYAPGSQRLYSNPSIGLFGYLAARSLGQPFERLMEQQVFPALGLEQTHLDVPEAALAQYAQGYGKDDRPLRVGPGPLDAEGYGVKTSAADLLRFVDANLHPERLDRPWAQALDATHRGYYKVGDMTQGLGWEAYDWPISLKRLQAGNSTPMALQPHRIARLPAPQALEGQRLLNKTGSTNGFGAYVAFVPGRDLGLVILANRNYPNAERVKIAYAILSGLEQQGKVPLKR

Consider `O=C1N2CC=C(c3cnco3)C(C2)N1OS(=O)(=O)[O-].[Na+]` (stereo not drawn) [Example 3, Sodium [4-(oxazol-5-yl)-7-oxo-1,6-diazabicyclo[3.2.1]oct-3-en-6-yl]sulfate], for which the IC50 in [1] turned out to be 3.4 nM; in [2], 6.9 nM; in [3] it was 210 nM; in assay [4] it was 1100 nM; in [5] it was 33 nM; in [24], 2000 nM. For the same compound, the MIC in assay [6] was 8 µg/mL; in assay [7], 2 µg/mL; in assay [8], 4 µg/mL; in assay [9], 2 µg/mL; in assay [10] it was more than 32 µg/mL; in assay [11], more than 32 µg/mL. Also, the MIC in assay [12] is 16 µg/mL; in [13] it was more than 32 µg/mL; in assay [14] it was more than 32 µg/mL; in [15], more than 32 µg/mL; in [16] it was more than 32 µg/mL; in assay [17], more than 32 µg/mL. In addition, the MIC in assay [18] is more than 32 µg/mL; in [19] it was more than 32 µg/mL; in assay [20] it was 4 µg/mL; in [21], more than 32 µg/mL; in assay [22] it was more than 32 µg/mL. In addition, the “MIC combination of CAZ and compounds of the invention at 4 μg/mL” value (“MIC combination” for short) in assay [23] was less than 0.25 µg/mL.

`Cn1cc(C2=CCN3CC2N(OS(=O)(=O)[O-])C3=O)cnc1=O.[Na+]` (stereo not drawn) [Example 15, Sodium [4-(N-methyl-2-oxo-pyrimidin-5-yl)-7-oxo-1,6-diazabicyclo[3.2.1]oct-3-en-6-yl] sulfate]: the half-inhibitory concentration (IC50) was determined as 9.9 nM in [1]; 12 nM in [2]; 1100 nM in [3]; 2600 nM in assay [4]; 290 nM in assay [5]; 3500 nM in assay [24]. The MIC in assay [6] is 2 µg/mL; in assay [7] it was 0.5 µg/mL; in assay [8], 4 µg/mL; in [9] it was 0.5 µg/mL; in assay [10], 1 µg/mL; in assay [11], more than 32 µg/mL. The MIC was 8 µg/mL in [12]; more than 32 µg/mL in assay [13]; 32 µg/mL in assay [14]; more than 32 µg/mL in assay [15]; more than 32 µg/mL in assay [16]; more than 32 µg/mL in [17]. Moreover, the MIC in assay [18] was more than 32 µg/mL; in assay [19], more than 32 µg/mL; in assay [20], 0.5 µg/mL; in [21], more than 32 µg/mL; in [22], more than 32 µg/mL. Besides, in [23], the “MIC combination” value was 1 µg/mL.

On to `Cn1ncc(C2=CCN3CC2N(OS(=O)(=O)[O-])C3=O)cc1=O.[Na+]` (stereo not drawn) [Example 19, Sodium [4-(1-methyl-6-oxo-pyridazin-4-yl)-7-oxo-1,6-diazabicyclo[3.2.1]oct-3-en-6-yl] sulfate], for which the IC50 in assay [1] was 4 nM; in assay [2], 8.9 nM; in [3], 380 nM; in [4] it was 290 nM; in assay [5] it was 75 nM; in [24] it was 1800 nM. For the same compound, the MIC is 8 µg/mL in assay [6]; 4 µg/mL in assay [7]; 2 µg/mL in assay [8]; 4 µg/mL in assay [9]; more than 32 µg/mL in [10]; more than 32 µg/mL in assay [11]. Moreover, the MIC in assay [12], in assay [13], in assay [14], in assay [15], in assay [16] and in assay [17] was more than 32 µg/mL each time. In addition, the MIC is more than 32 µg/mL in [18]; more than 32 µg/mL in assay [19]; 4 µg/mL in assay [20]; more than 32 µg/mL in assay [21]; more than 32 µg/mL in assay [22]. In addition, in assay [23], the “MIC combination” value is less than 0.25 µg/mL.

As to `O=C1N2CC(c3ncco3)=CC(C2)N1OS(=O)(=O)[O-].[Na+]` (stereo not drawn) [Example 25, Sodium [3-(oxazol-2-yl)-7-oxo-1,6-diazabicyclo[3.2.1]oct-3-en-6-yl]sulfate], the IC50 in assay [1] is 3.8 nM; in assay [2], 15 nM; in assay [3], 310 nM; in assay [4], 190 nM; in assay [5], 300 nM; in assay [24], 97 nM. For the same compound, the MIC in [6] was 8 µg/mL; in [7], 4 µg/mL; in [8] it was 2 µg/mL; in assay [9], 2 µg/mL; in assay [10], 2 µg/mL; in [11], 16 µg/mL. Besides, the MIC amounted to 8 µg/mL in assay [12]; 4 µg/mL in [13]; 4 µg/mL in [14]; 4 µg/mL in assay [15]; 2 µg/mL in assay [16]; 8 µg/mL in assay [17]. Besides, the MIC is 4 µg/mL in [18]; 4 µg/mL in assay [19]; 8 µg/mL in assay [20]; 4 µg/mL in assay [21]; more than 128 µg/mL in assay [22]. For the same compound, the “MIC combination” value in assay [23] was less than 0.25 µg/mL.

With `NCc1cnc(C2=CC3CN(C2)C(=O)N3OS(=O)(=O)O)s1` (stereo not drawn) [Example 38, [3-[5-(aminomethyl)thiazol-2-yl]-7-oxo-1,6-diazabicyclo[3.2.1]oct-3-en-6-yl] hydrogen sulfate], the IC50 in [1] came out at 0.7 nM; in [2], 4.3 nM; in [3] it was 630 nM; in assay [4] it was 560 nM; in [5] it was 280 nM; in [24], 320 nM. The MIC is 4 µg/mL in assay [6]; 1 µg/mL in assay [7]; 4 µg/mL in assay [8]; 0.5 µg/mL in assay [9]; 32 µg/mL in assay [10]; 1 µg/mL in assay [11]. The MIC was 2 µg/mL in [12]; 32 µg/mL in assay [13]; 16 µg/mL in [14]; 8 µg/mL in assay [15]; 8 µg/mL in assay [16]; more than 32 µg/mL in assay [17]. Also, the MIC in assay [18] is more than 32 µg/mL; in assay [19] it was more than 32 µg/mL; in assay [20], 0.5 µg/mL; in assay [21] it was 32 µg/mL; in [22], more than 32 µg/mL. In addition, the “MIC combination” value in assay [23] is less than 0.25 µg/mL.
